Reference: ChEMBL document CHEMBL5120922, “Discovery, Optimization, and Evaluation of Potent and Selective PI3Kδ-γ Dual Inhibitors for the Treatment of B-cell Malignancies” (J Med Chem, 2022)

Key:
SU-DHL-6 = assay: Antiproliferative activity against human SU-DHL-6 cells assessed as cell growth inhibition measured after 72 hrs by MTT assay; type: functional, cell-based; details: SU-DHL-6, 72 h
[1] = molecular target: T1, Phosphatidylinositol 4,5-bisphosphate 3-kinase catalytic subunit alpha isoform (Homo sapiens, UniProt P42336); assay: Inhibition of N-terminal His6-tagged recombinant full length human PI3Kalpha expressed in baculovirus infected Sf21 insect cells incubated for 30 mins by HTRF assay
T1 sequence (P42336 whole entry, canonical isoform): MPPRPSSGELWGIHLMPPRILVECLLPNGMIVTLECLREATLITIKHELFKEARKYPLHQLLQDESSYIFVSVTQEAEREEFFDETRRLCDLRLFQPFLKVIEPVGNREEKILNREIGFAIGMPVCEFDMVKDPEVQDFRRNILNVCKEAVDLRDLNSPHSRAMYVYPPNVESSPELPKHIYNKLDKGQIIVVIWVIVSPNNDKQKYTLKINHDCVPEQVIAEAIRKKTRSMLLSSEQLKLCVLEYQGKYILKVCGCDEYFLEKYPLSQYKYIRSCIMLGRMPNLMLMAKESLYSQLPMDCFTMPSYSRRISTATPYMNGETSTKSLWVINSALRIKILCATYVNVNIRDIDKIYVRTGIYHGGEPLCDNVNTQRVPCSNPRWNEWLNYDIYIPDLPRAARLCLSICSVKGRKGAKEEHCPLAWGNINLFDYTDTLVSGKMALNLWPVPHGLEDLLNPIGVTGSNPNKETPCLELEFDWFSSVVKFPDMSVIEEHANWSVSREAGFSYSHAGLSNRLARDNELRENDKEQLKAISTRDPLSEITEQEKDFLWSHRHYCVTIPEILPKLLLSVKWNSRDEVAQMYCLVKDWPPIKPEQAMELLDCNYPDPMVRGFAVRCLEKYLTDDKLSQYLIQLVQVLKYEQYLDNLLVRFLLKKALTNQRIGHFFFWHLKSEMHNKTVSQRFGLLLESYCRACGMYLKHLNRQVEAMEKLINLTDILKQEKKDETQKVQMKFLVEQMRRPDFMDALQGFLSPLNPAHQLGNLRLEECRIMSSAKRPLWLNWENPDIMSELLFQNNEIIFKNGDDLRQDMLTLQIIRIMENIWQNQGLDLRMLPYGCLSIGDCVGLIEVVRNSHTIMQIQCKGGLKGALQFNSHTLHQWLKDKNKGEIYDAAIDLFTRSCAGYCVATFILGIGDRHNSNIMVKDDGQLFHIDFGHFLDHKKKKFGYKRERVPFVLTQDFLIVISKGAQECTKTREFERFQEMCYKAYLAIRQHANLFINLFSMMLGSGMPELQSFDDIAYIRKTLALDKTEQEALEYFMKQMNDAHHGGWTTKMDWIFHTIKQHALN

SUD4 = assay: Antiproliferative activity against human SU-DHL-4 cells assessed as cell growth inhibition measured after 72 hrs by MTT assay; type: functional, cell-based; details: SU-DHL-4, 72 h
[2] = molecular target: T2, Phosphatidylinositol 4,5-bisphosphate 3-kinase catalytic subunit delta isoform (Homo sapiens, UniProt O00329); assay: Inhibition of N-terminal His6-tagged recombinant full length human PI3Kdelta expressed in baculovirus infected Sf21 insect cells incubated for 30 mins by HTRF assay
T2 sequence (O00329 whole entry): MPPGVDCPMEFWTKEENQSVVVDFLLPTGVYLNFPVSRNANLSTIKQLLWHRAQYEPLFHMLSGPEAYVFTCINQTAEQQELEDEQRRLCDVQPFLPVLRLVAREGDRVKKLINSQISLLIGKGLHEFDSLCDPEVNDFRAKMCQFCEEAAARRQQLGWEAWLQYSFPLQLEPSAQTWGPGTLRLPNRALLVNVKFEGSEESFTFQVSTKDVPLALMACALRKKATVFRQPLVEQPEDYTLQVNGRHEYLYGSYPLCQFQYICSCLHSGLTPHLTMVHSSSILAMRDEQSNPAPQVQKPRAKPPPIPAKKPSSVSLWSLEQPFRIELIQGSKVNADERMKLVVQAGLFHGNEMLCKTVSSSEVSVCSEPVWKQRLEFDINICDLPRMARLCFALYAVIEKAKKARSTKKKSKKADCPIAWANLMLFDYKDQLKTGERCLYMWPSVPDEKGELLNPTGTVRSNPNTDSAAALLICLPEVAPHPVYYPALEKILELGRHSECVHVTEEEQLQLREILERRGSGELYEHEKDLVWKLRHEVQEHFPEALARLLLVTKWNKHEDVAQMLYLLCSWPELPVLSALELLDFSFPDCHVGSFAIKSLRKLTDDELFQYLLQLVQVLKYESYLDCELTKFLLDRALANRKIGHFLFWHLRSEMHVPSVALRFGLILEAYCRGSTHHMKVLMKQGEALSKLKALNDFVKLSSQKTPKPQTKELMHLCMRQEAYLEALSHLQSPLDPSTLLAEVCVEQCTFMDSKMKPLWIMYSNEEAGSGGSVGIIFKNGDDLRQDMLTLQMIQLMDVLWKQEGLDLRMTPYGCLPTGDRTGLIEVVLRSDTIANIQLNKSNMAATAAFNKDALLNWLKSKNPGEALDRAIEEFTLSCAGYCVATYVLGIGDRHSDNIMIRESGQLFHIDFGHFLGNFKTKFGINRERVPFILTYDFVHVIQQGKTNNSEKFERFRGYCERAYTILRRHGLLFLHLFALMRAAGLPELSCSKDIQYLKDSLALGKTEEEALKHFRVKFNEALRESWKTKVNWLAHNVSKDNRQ

[3] = molecular target: T3, Phosphatidylinositol 4,5-bisphosphate 3-kinase catalytic subunit beta isoform (Homo sapiens, UniProt P42338); assay: Inhibition of N-terminal His6-tagged recombinant full length human PI3Kbeta expressed in baculovirus infected Sf21 insect cells incubated for 30 mins by HTRF assay
Target sequence in this assay (P42338 whole entry, canonical isoform): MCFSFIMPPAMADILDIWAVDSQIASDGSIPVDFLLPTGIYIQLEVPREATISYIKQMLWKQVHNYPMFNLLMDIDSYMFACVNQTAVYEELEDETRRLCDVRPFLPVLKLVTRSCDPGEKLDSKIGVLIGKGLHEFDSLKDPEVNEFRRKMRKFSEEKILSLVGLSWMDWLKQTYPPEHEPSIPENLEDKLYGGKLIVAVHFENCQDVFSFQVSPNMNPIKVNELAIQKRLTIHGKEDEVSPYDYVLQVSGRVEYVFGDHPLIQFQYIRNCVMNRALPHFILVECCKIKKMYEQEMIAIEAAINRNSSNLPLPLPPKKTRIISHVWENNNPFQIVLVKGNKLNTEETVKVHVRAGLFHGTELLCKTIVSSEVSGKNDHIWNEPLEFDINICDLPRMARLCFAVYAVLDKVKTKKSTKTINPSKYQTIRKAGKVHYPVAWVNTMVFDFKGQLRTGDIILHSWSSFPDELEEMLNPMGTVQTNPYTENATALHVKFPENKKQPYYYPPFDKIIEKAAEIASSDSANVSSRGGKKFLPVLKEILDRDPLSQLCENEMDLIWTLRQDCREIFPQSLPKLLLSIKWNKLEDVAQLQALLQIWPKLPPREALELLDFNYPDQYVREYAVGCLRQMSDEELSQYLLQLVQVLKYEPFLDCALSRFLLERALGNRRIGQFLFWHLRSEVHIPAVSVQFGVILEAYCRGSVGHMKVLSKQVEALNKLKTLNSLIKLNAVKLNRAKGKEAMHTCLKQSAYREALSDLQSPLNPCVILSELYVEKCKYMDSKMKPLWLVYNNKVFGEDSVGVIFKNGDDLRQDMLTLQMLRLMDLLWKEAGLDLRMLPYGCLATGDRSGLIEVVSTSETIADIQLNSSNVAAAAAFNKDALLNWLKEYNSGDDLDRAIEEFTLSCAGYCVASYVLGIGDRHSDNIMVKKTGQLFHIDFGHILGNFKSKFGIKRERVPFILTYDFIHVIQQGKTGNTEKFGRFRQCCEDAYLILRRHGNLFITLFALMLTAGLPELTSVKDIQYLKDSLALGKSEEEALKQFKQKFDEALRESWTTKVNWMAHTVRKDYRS

[4] = molecular target: T4, Phosphatidylinositol 4,5-bisphosphate 3-kinase catalytic subunit gamma isoform (Homo sapiens, UniProt P48736); assay: Inhibition of N-terminal His6-tagged recombinant full length human PI3Kgamma expressed in baculovirus infected Sf21 insect cells incubated for 30 mins by HTRF assay
Target sequence in this assay (P48736 whole entry, canonical isoform): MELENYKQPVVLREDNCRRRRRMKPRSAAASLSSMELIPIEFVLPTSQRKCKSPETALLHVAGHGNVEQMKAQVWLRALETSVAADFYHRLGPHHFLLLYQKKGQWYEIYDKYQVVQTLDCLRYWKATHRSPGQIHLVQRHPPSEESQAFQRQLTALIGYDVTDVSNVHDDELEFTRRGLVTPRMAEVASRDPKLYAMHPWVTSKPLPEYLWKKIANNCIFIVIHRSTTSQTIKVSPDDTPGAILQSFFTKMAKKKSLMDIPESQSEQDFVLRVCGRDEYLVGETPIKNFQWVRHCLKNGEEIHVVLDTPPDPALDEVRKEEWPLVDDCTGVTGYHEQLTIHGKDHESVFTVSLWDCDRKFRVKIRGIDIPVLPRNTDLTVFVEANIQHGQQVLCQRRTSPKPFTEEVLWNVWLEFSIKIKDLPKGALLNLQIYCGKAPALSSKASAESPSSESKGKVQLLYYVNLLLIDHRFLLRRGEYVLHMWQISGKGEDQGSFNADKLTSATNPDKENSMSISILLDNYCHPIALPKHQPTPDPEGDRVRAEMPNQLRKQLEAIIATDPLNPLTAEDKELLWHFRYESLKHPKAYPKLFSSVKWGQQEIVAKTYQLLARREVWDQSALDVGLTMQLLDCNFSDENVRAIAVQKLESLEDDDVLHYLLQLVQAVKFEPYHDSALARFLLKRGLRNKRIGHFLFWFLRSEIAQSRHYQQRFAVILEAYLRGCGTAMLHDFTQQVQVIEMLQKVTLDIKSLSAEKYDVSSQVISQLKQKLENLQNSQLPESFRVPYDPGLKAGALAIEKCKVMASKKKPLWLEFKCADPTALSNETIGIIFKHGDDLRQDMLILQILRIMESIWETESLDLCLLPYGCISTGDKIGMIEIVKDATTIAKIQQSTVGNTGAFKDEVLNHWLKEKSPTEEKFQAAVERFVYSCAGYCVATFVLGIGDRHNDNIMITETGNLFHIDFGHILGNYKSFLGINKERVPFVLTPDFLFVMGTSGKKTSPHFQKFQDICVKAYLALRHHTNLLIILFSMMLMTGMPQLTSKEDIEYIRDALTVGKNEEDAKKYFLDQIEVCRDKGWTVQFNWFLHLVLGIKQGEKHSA

DOHH-2 = assay: Antiproliferative activity against human DOHH-2 cells assessed as cell growth inhibition measured after 72 hrs by MTT assay; type: functional, cell-based; details: DOHH-2, 72 h
[5] = molecular target: T4, Phosphatidylinositol 4,5-bisphosphate 3-kinase catalytic subunit gamma isoform; assay: Inhibition of N-terminal His6-tagged recombinant full length human PI3Kgamma expressed in baculovirus infected Sf21 insect cells at 0.1 uM by HTRF assay relative to control
Target sequence in this assay (P48736 whole entry, looked up, canonical isoform): as the sequence (P48736 whole entry, canonical isoform) above

[6] = Metabolic stability in human liver microsomes assessed as compound remaining at 1 uM measured upto 60 mins in presence of NADPH; type: ADME, Microsome; details: read-out: Stability
[7] = Metabolic stability in human liver microsomes assessed as clearance at 1 uM measured upto 60 mins in presence of NADPH by measuring protein; type: ADME, Microsome; details: 1 h
[8] = molecular target: T1, Phosphatidylinositol 4,5-bisphosphate 3-kinase catalytic subunit alpha isoform; assay: Inhibition of N-terminal His6-tagged recombinant full length human PI3Kalpha expressed in baculovirus infected Sf21 insect cells at 1 uM by HTRF assay relative to control
[9] = molecular target: T3, Phosphatidylinositol 4,5-bisphosphate 3-kinase catalytic subunit beta isoform; assay: Inhibition of N-terminal His6-tagged recombinant full length human PI3Kbeta expressed in baculovirus infected Sf21 insect cells at 1 uM by HTRF assay relative to control
Target sequence in this assay (P42338 whole entry, looked up, canonical isoform): as the sequence (P42338 whole entry, canonical isoform) above

[10] = molecular target: T5, Phosphatidylinositol 4,5-bisphosphate 3-kinase catalytic subunit delta isoform (Homo sapiens) (UniProt O00329); assay: Inhibition of N-terminal His6-tagged recombinant full length human PI3Kdelta expressed in baculovirus infected Sf21 insect cells at 0.1 uM by HTRF assay relative to control
T5 sequence (whole entry): T2 sequence (O00329 whole entry)

[11] = Metabolic stability in human liver microsomes assessed as half life at 1 uM measured upto 60 mins in presence of NADPH; type: ADME, Microsome
[12] = molecular target: T5, Phosphatidylinositol 4,5-bisphosphate 3-kinase catalytic subunit delta isoform (Homo sapiens); assay: Inhibition of N-terminal His6-tagged recombinant full length human PI3Kdelta expressed in baculovirus infected Sf21 insect cells at 1 uM by HTRF assay relative to control
[13] = molecular target: T4, Phosphatidylinositol 4,5-bisphosphate 3-kinase catalytic subunit gamma isoform; assay: Inhibition of N-terminal His6-tagged recombinant full length human PI3Kgamma expressed in baculovirus infected Sf21 insect cells at 1 uM by HTRF assay relative to control
Target sequence in this assay (P48736 whole entry, looked up, canonical isoform): as the sequence (P48736 whole entry, canonical isoform) above

Structure (SMILES): C[C@H]1CC[C@@H](c2nc3c(F)cc(F)cc3c(=O)n2-c2cccnc2)N1c1nc(N)nc(N)c1C#N
- IC50 (SU-DHL-6): 180 nM
- IC50 [1]: 374000 nM
- IC50 (SUD4): 160 nM
- IC50 [2]: 3000 nM
- IC50 [3]: 445000 nM
- IC50 [4]: 30000 nM
- IC50 (DOHH-2): 470 nM

Structure (SMILES): CCCn1cc(-c2cccc3nc([C@@H]4CC[C@H](C)N4c4nc(N)nc(N)c4C#N)n(-c4ccccc4)c(=O)c23)cn1
- inhibition [5]: 2%
- IC50 (SU-DHL-6): 390 nM
- IC50 (SUD4): 330 nM
- remaining at 1 h, 1 µM [6]: 51.2%
- CLH [7]: 16.8 mL/min/g
- inhibition [8]: 5%
- inhibition [9]: 13%
- inhibition [10]: -2%
- IC50 (DOHH-2): 690 nM
- half-life at 1 µM [11]: 1.38 h

Structure (SMILES): C[C@H]1CC[C@@H](c2nc3cccc(C#Cc4cccnc4)c3c(=O)n2-c2ccccc2)N1c1nc(N)nc(N)c1C#N
- inhibition [5]: 31%
- IC50 (SU-DHL-6): 320 nM
- IC50 (SUD4): 240 nM
- remaining at 1 h, 1 µM [6]: 78.1%
- CLH [7]: 8 mL/min/g
- inhibition [8]: 8%
- inhibition [9]: 13%
- inhibition [10]: 4%
- IC50 (DOHH-2): 690 nM
- half-life at 1 µM [11]: 2.89 h

Structure (SMILES): COc1cncc(-c2cccc3nc([C@@H]4CC[C@H](C)N4c4nc(N)nc(N)c4C#N)n(-c4ccccc4)c(=O)c23)c1
- inhibition [5]: 12%
- IC50 (SU-DHL-6): 190 nM
- IC50 (SUD4): 120 nM
- remaining at 1 h, 1 µM [6]: 59.9%
- CLH [7]: 20.8 mL/min/g
- inhibition [8]: 13%
- inhibition [9]: 19%
- IC50 (DOHH-2): 290 nM
- half-life at 1 µM [11]: 1.11 h

Structure (SMILES): N#Cc1c(N)nc(N)nc1N1[C@H](c2nc3cccc(Cl)c3c(=O)n2N2CCOCC2)C[C@@H]2CCCC[C@@H]21
- IC50 (SU-DHL-6): 1340 nM
- IC50 (SUD4): 1040 nM
- IC50 [2]: 41000 nM
- IC50 [4]: 312000 nM
- IC50 (DOHH-2): 3860 nM

Structure (SMILES): C[C@H]1CC[C@@H](c2nc3cccc(-c4cccnc4)c3c(=O)n2-c2ccccc2)N1c1nc(N)nc(N)c1C#N
- inhibition [5]: 25%
- IC50 (SU-DHL-6): 280 nM
- IC50 (SUD4): 120 nM
- remaining at 1 h, 1 µM [6]: 32.6%
- CLH [7]: 37.4 mL/min/g
- inhibition [8]: -7%
- inhibition [9]: 19%
- IC50 (DOHH-2): 1010 nM
- half-life at 1 µM [11]: 0.618 h

Structure (SMILES): C[C@H]1CC[C@@H](c2nc3cccc(-c4cnn(C)c4)c3c(=O)n2-c2ccccc2)N1c1nc(N)nc(N)c1C#N
- inhibition [5]: 12%
- IC50 (SU-DHL-6): 420 nM
- IC50 (SUD4): 300 nM
- remaining at 1 h, 1 µM [6]: 64.7%
- CLH [7]: 13.8 mL/min/g
- inhibition [8]: -1%
- inhibition [9]: 20%
- inhibition [10]: -8%
- IC50 (DOHH-2): 680 nM
- half-life at 1 µM [11]: 1.67 h

Structure (SMILES): CC(C)n1cc(-c2cccc3nc([C@@H]4CC[C@H](C)N4c4nc(N)nc(N)c4C#N)n(-c4ccccc4)c(=O)c23)cn1
- inhibition [5]: 10%
- IC50 (SU-DHL-6): 320 nM
- IC50 (SUD4): 210 nM
- remaining at 1 h, 1 µM [6]: 40.4%
- CLH [7]: 29.6 mL/min/g
- inhibition [8]: 12%
- inhibition [9]: 28%
- inhibition [10]: 1%
- IC50 (DOHH-2): 540 nM
- half-life at 1 µM [11]: 0.78 h

Structure (SMILES): C[C@H]1CC[C@@H](c2nc3cccc(Cl)c3c(=O)n2-c2ccccc2)N1c1nc(N)nc2[nH]cnc12
- inhibition [5]: 30%
- IC50 (SU-DHL-6): 250 nM
- IC50 (SUD4): 180 nM
- remaining at 1 h, 1 µM [6]: 75.5%
- CLH [7]: 11.4 mL/min/g
- inhibition [8]: 78%
- inhibition [9]: 31%
- inhibition [10]: 18%
- IC50 (DOHH-2): 280 nM
- half-life at 1 µM [11]: 2.03 h
- inhibition [12]: -2%

Structure (SMILES): CCOc1cncc(-c2cccc3nc([C@@H]4CC[C@H](C)N4c4nc(N)nc(N)c4C#N)n(-c4ccccc4)c(=O)c23)c1
- inhibition [5]: -8%
- IC50 (SU-DHL-6): 430 nM
- IC50 (SUD4): 110 nM
- remaining at 1 h, 1 µM [6]: 46.1%
- CLH [7]: 28.4 mL/min/g
- inhibition [9]: -3%
- inhibition [10]: -6%
- IC50 (DOHH-2): 210 nM
- half-life at 1 µM [11]: 0.813 h

Structure (SMILES): C[C@H]1CC[C@@H](c2nc3cccc(Cl)c3c(=O)n2-c2ccccc2)N1c1nc(N)nc(N)c1C#N
- inhibition [5]: 24%
- inhibition [13]: -3%
- IC50 (SU-DHL-6): 110 nM
- IC50 (SUD4): 120 nM
- remaining at 1 h, 1 µM [6]: 67.9%
- CLH [7]: 13 mL/min/g
- inhibition [8]: 13%
- inhibition [9]: 45%
- inhibition [10]: -7%
- IC50 (DOHH-2): 820 nM
- half-life at 1 µM [11]: 1.78 h
- inhibition [12]: -1%

Structure (SMILES): CCn1cc(-c2cccc3nc([C@@H]4CC[C@H](C)N4c4nc(N)nc(N)c4C#N)n(-c4ccccc4)c(=O)c23)cn1
- inhibition [5]: -10%
- IC50 (SU-DHL-6): 530 nM
- IC50 (SUD4): 290 nM
- remaining at 1 h, 1 µM [6]: 60%
- CLH [7]: 17.4 mL/min/g
- inhibition [8]: 1%
- inhibition [9]: 6%
- inhibition [10]: -4%
- IC50 (DOHH-2): 740 nM
- half-life at 1 µM [11]: 1.33 h

Structure (SMILES): N#Cc1c(N)nc(N)nc1N1[C@H](c2nc3cccc(Cl)c3c(=O)n2-c2cccc(F)c2)C[C@@H]2CCCC[C@@H]21
- IC50 (SU-DHL-6): 1610 nM
- IC50 (SUD4): 1300 nM
- IC50 [2]: 28000 nM
- IC50 [4]: 280000 nM
- IC50 (DOHH-2): 2800 nM

Structure (SMILES): C[C@H]1CC[C@@H](c2nc3cccc(-c4cnn(C5CC5)c4)c3c(=O)n2-c2ccccc2)N1c1nc(N)nc(N)c1C#N
- inhibition [5]: -2%
- IC50 (SU-DHL-6): 260 nM
- IC50 (SUD4): 220 nM
- remaining at 1 h, 1 µM [6]: 45%
- CLH [7]: 17.8 mL/min/g
- inhibition [8]: 23%
- inhibition [9]: 2%
- inhibition [10]: 0%
- IC50 (DOHH-2): 390 nM
- half-life at 1 µM [11]: 1.3 h
